Experimental data from paper PMC7672604, “Design, Synthesis, Molecular Docking, Antiapoptotic and Caspase-3 Inhibition of New 1,2,3-Triazole/Bis-2(1H)-Quinolinone Hybrids” (Molecules, 2020).

Tests used:
testis of I/R rats [1] = test: Testicular TAC in testis of I/R rats; format: in vivo; conditions: i.p. 1 h before ischemia, dose equivalent to 30 mg NAC, mean ± S.E.M, n=6
Procedure: (§1) This section describes the methods used in the investigation of the antiapoptotic effect of the novel compounds 6a–g then supported by further histological and molecular docking studies. The antiapoptotic effect of 6a–g was evaluated through evaluation of decreasing tissue damage induced by I/R in the testis of rats in a dose equivalent to 30 mg N-acetylcysteine (NAC) as an antiapoptotic reference. The rats were subdivided into sham, I/R, NAC and treated with tested compounds groups, each group comprises of 6 rats (weighing 140–150 g). The targeted compounds 6a–g were administrated intra-peritoneal (i.p.) an hour before ischemia, which lasted for (0.5 h) then reperfusion (1 h) followed by cutting the organ (Figure 5). Different biomarkers concentrations were measured in serum to detect testis injury due to ischemia/reperfusion (I/R).
(§2) During the long testicular torsion, oxidation damage affects the testis by the production of the reactive oxygen species (ROS). Excessive generation of the ROS interacts with lipids, proteins, and nucleic acids, which has an adverse effect on cell function and damage. The testis has high cell metabolism such that excessive ROS production weakens antioxidant capacity. Malondialdehyde (MDA) is the end product of lipid peroxidation and increased MDA level has an adverse effect on sperm fertility. Furthermore, total antioxidant capacity (TAC) is the measure of the number of free radicals scavenged by a test solution, being used to evaluate the antioxidant capacity of biological samples [55]. The data collected in Table S3 (Supplementary Materials) have identified that there was a significant increase in testicular MDA with a significant decrease in testicular TAC in the I/R group as well as compounds 6d and 6f when compared to sham control and NAC groups. These findings indicate that both 6d and 6f are the worst antiapoptotic compounds compound amongst all the synthesized compounds.
TAC was assessed by the colorimetric technique using commercial kits (El-Minia, Egypt) (See Supplementary Materials). Testicular MDA, an index of lipid peroxidation, was determined by using 1,1,3,3-tetramethoxypropane as standard (See Supplementary Materials). […]
1.3.Determination of Total Antioxidant Capacity (Testicular tissue)
Free radicals or reactive oxygen species (ROS) are produced during biochemical redox reactions as part
of normal physiological cell metabolism (protection from infectious organisms) and as a response to
environmental factors such as UV light, cigarette smoke, environmental pollutants, and g-radiation. Once
formed, ROS attack cellular components causing damage to lipids, proteins, and DNA which can initiate
Antioxidants in the sample reduce dark blue-green colored ABTS radical to colorless reduced ABTS
form. The change of absorbance at 660 nm is related with total antioxidant level of the sample. The assay
is calibrated with a stable antioxidant standard solution which is traditionally named as Trolox
Equivalent that is a vitamin E analog.
The determination of the antioxidative capacity is performed by the reaction of antioxidants in the
sample with a defined amount of exogenously provide hydrogen peroxide (H2O2) The antioxidants in the
sample eliminate a certain amount of the provided hydrogen peroxide. The residual H2O2 is determined
(1 picture or pasted object on this page, not shown here)
colorimetrically by an enzymatic reaction which involves the conversion of 3,5,dichloro–2–hydroxy
benzensulphonate to a colored product.
* Dilute R11000 times immediately before use (10 μl R1 + 10 ml d. Water mix Discard after use.
*Working Reagent: mix equal volumes of R2 and R3 immediately before use.
*Dilute sample if necessary
Total Antioxidant concentration […]

testis of I/R rats [2] = test: Testicular testosterone in testis of I/R rats (ELISA); format: in vivo; design: unit not given here; conditions: i.p. 1 h before ischemia, dose equivalent to 30 mg NAC, mean ± S.E.M, n=6
Procedure: as §1
(§3) It was reported that excessive apoptosis in the testis could damage the Leydig cells and apparent decline in serum testosterone levels. Furthermore, excessive apoptosis of Leydig cells results in decreased testosterone. The assays of the apoptotic biomarkers (testicular testosterone and TNFα) were done in comparison with the sham and NAC treated group and the results were outlined in Table S4 (Supplementary Materials).
(§4) TNF-α was measured by ELISA kit (Elabscience, Houston, TX, USA). Caspase-3 was measured by ELISA kit Cusabio, Houston, TX, USA (See Supplementary Materials). Testosterone concentration in testicular samples was determined by the ELISA kit (“DRG”, Marburg, Germany) (See Supplementary Materials).
1.2.Determination of serum testosterone using ELISA kit
This ELISA kit uses the Competitive-ELISA principle. The micro ELISA plate provided in this kit has been pre-coated with T. During the reaction, T in the sample or standard competes with a fixed amount of T on the solid phase supporter for sites on the Biotinylated Detection Ab specific to T. Excess conjugate and unbound sample or standard are washed from the plate, and Avidin conjugated to Horseradish Peroxidase (HRP) are added to each microplate well and incubated. Then a TMB substrate solution is added to each well. The enzyme-substrate reaction is terminated by the addition of stop solution and the color change is measured spectrophotometrically at a wavelength of 450 nm ± 2 nm. The concentration of T in the samples is then determined by comparing the OD of the samples to the standard […]
Serum: Allow samples to clot for 2 hours at room temperature or overnight at 4℃ before centrifugation for 20 min at 1000×g at 2-8℃. Collect the supernatant to carry out the assay. Blood collection tubes should be disposable and be non-endotoxin. […]
1. Bring all reagents to room temperature (18~25℃) before use. Follow the Microplate reader manual for set-up and preheat it for 15 min before OD measurement.
2. Wash Buffer: Dilute 30 mL of Concentrated Wash Buffer with 720 mL of deionized or distilled water to prepare 750 mL of Wash Buffer. Note: if crystals have formed in the concentrate, warm it in a 40℃ water-bath and mix it gently until the crystals have completely dissolved.
3. Standard working solution: Centrifuge the standard at 10,000×g for 1min. Add 1.0mL of Reference Standard &Sample Diluent, let it stand for 10min and invert it gently several times. After it dissolves fully, mix it thoroughly with a pipette. This reconstitution produces a working solution of 20 ng/mL. Then make serial dilutions as needed. The recommended dilution gradient is as […]
Dilution method: Take 7 EP tubes, add 500uL of Reference Standard & Sample Diluent to each tube. Pipette 500uL of the 20 ng/mL working solution to the first tube and mix up to produce a 10 ng/mL working solution. Pipette 500uL of the solution from the former tube to the latter one according to this step. The illustration below is for reference. Note: the last tube is regarded as a blank. Don’t pipette solution into it from the former tube.

caspase-3 = test: Caspase-3 level in serum of testicular I/R rats (ELISA); format: in vivo; conditions: mean ± S.E.M, n=6
Procedure: as §1
Caspases can delay apoptosis, implicating a potential role in drug screening efforts. Therefore, we studied the mechanism of the caspase-3 inhibition activity. Caspase-3 was assayed in the serum of rats treated with 6a–g in comparison with sham and the NAC treated group, as shown in Table S5 (Supplementary Materials).
as §4

testis of I/R rats [3] = test: Testicular MDA in testis of I/R rats; format: in vivo; conditions: i.p. 1 h before ischemia, dose equivalent to 30 mg NAC, mean ± S.E.M, n=6
Procedure: as §1, §2
TAC was assessed by the colorimetric technique using commercial kits (El-Minia, Egypt) (See Supplementary Materials). Testicular MDA, an index of lipid peroxidation, was determined by using 1,1,3,3-tetramethoxypropane as standard (See Supplementary Materials).

testis of I/R rats [4] = test: TNFα in testis of I/R rats (ELISA); format: in vivo; conditions: i.p. 1 h before ischemia, dose equivalent to 30 mg NAC, mean ± S.E.M, n=6
Procedure: as §1, §3, §4

melting point [°C] | SMILES | Testicular TAC (testis of I/R rats [1]) [mmol/g tissue] | Testicular testosterone (testis of I/R rats [2]) | Caspase-3 level (caspase-3) [ng/mL] | Testicular MDA (testis of I/R rats [3]) [nmol/g tissue] | TNF-α (testis of I/R rats [4]) [pg/mL]
298 | Cc1ccc2[nH]c(=O)cc(-n3cc(COc4cc(=O)[nH]c5ccccc45)nn3)c2c1 [6b, 6-Methyl-4-(4-(((2-oxo-1,2-dihydroquinolin-4-yl)oxy)methyl)-1H-1,2,3-triazol-1-yl)quinolin-2(1H)-one] | 4.62±0.33 | 5.07±0.45 | 2.94 ± 0.28 | 61.84±4.77 | 107.90 ± 2.96
300 to 302 | O=c1cc(OCc2cn(-c3cc(=O)[nH]c4ccccc34)nn2)c2ccccc2[nH]1 [6a, 4-((1-(2-Oxo-1,2-dihydroquinolin-4-yl)-1H-1,2,3-triazol-4-yl)methoxy)quinolin-2(1H)-one] | 5.48±0.41 | 4.93±0.38 | 2.66 ± 0.21 | 62.38±4.23 | 106.40 ± 4.44
